Measured values published in US11260050B2, “Combination of cotinine plus antioxidant for treatment-resistant depression and correction of astrocytes functional deficit induced by depression and other neuropathological” (UNIVERSIDAD SAN SEBASTIAN, priority 2017, dated 2022).

Experiments:
[1] = tested on: GFAP; assay: Immunohistochemical analysis of GFAP expression, hippocampus and frontal cortex (Example 1); assay type: in vivo, C57BL/6 mice; conditions: RS mice treated with cotinine
Description: After treatments, the hippocampus and frontal cortex were investigated for changes in neuronal and glia cells architecture by Luxol blue staining, and cresyl violet staining. Also, the expression levels of the astrocyte marker GFAP in cells of the same areas by immunohistochemistry.
After the behavioral testing, mice were euthanized and brains were removed and dissected. Each brain was divided into two parts, left and right hemispheres. The frontal cortex and hippocampus were dissected from left hemisphere on ice and quickly frozen for subsequent analyses at −80° C. The right hemispheres were post-fixed in 10% buffered formalin (pH7.4) for 48 hours, included in paraffin, sliced in 4 μm sections and mounted in slides for histological and immunohistochemical analysis. […]
Three digital images of the slides immunostained for GFAP immunoreactivity (IR) were obtained of the hippocampus and frontal cortex using a digital camera attached to an inverted microscope at 40× magnification (Micrometrics, MilesCo Scientific, Princeton, Minn., USA) operated by software Micrometrics (Micrometrics SE Premium). To quantitate GFAP immunoreactivity the area of immunostaining was delimited and quantitated using the ImageJ software, provided by the National Institute of Health (NIH, Bethesda, […]., USA).

[2] = tested on: GFAP+ astrocytes; assay: Morphology and fractal analysis of GFAP+ cells in the hippocampus (Example 2); assay type: in vivo, C57BL/6 male mice
Protocol: For the IR analysis, for each mouse, three digital images were randomly selected at 40× magnifications in the areas of interest (hippocampus and frontal cortex) (n=5-6/condition). The images were taken using a digital camera attached to a light microscope (Micrometrics, MilesCo Scientific, Princeton, Minn., USA) connected to a camera operated by a commercial software (Micrometrics SE Premium). The determination of the area of the immunolabeling was calculated delimiting the IR areas using the ImageJ software (National Institute of Health, Bethesda, […]., USA). For all analyses, GFAP^+ astrocytes were selected randomly from the frontal cortex and the CA1, CA3 and dentate gyrus regions of the hippocampus and quantified. Using a digital camera on an inverted microscope, black and white images of GFAP^+ astrocytes were obtained and processed with Image J software. Using a 20× objective, cells were chosen randomly in the same area selected for immunostaining, and the binary overlay of a cell was created by thresholding. For all images, a threshold value was established at the level at which the binary overlay entirely enclosed the cell body and projections. All pixels above the threshold value were considered as belonging to the cell images. Finally, the binary silhouette of the whole cell was reduced to its one-pixel outline for estimation of the fractal dimensions with the FracLac 2.5 ImageJ plug-in (Karperien et al., 2013; Karperien and Jelinek, 2015)
Fractal analysis was done on binary images by means of the dilation method (Schaffner and Ghesquiere, 2001). The slope of the regression line (S) is related to the fractal dimension (D) by D=1−S. Each pixel in the cell outline was replaced with a disk of a diameter fluctuating from 3-61 pixels and the area of the widened outline divided by the diameter of structuring element was plotted against this diameter on a log-log scale.
the area of the cell body that is calculated as the two-dimensional cross-sectional area contained within the boundary of the cell body.
The area of the convex polygon formed by connecting the tips of the longest astrocytic processes (convex hull area). Convex hull values indicate the size of the branching field of the astrocyte. The amount of physical space is defined in terms of convex-hull volume, surface area, area, and or perimeter.
Measures heterogeneity and complements fractal dimension analysis in describing structural complexity (Karperien et al., 2013; Karperien and Jelinek, 2015; Schaffner and Ghesquiere, 2001).

[3] = tested on: restrained mice; assay: Open field test after chronic restraint stress (Example 2); assay type: in vivo, C57BL/6 male mice; conditions: IN cotinine 24 μl of 10 mg/ml daily, RS+PBS 61±19 m
Protocol: Mice between 2-3 months of age after one week of acclimatization were randomly divided into two groups. Stressed mice were subjected to restraint stress. Control (non-restrained) mice were allowed to move freely during this period. After the stress exposure period, mice were divided into three experimental groups: 1) Non-restrained mice treated with vehicle (PBS, pH 7.4) serving as unstressed controls (n=8); 2) Restrained mice (RS) treated with vehicle (n=8); 3), RS mice treated with 24 μl of a cotinine solution (10 mg/ml in PBS, pH 7.4) via intranasal route of administration (n=6). Treatments were administered daily until euthanasia. After two weeks of treatments mice were behaviorally tested and euthanized (FIG. 10) Intranasal delivery was performed as previously described (Hanson and Frey, 2007). Mice at 2-3 months of age were hand-restrained, positioned in a supine position, and administered two 12 μl drops of cotinine solution (10 mg/ml in PBS), or PBS alone, into both nares. […] Mice were individually placed in an uncovered square arena (40 cm×40 cm×35 cm), allowed to freely explore for 30 minutes (min) while monitored with a video tracking software (ANY-Maze®, Stoelting Co., Illinois, USA) under moderate lighting. Several parameters including total distance traveled, speed, and time spent in the center and peripheral zones (20 cm×20 cm) were measured to assess locomotor activity.

[4] = tested on: restrained C57BL/6 mice; conditions: oral cotinine administered before and continuously to restrained C57BL/6 mice; cited from earlier work
[5] = cotinine-treated restrained mice

## CN1C(=O)CC[C@H]1c1cccnc1 [Cotinine, (5S)-1-methyl-5-(3-pyridyl) pyrrolidin-2-one]
[1]
  level of GFAP+ cells in the hippocampus and cortex (qualitative analysis): recovery of this expression was observed
[2]; [5]
  GFAP+ cell area across CA1, CA3 and DG: statistically indistinguishable from nonstressed controls
  appearance of GFAP+ astrocytes in hippocampi and frontal cortices: large GFAP^+ cells with longer and more complex arborization
[2]; p<0.001 vs vehicle-treated restrained mice
  arbor area of astrocytes, DG: greater astrocytic arborization than vehicle-treated, restrained mice
[2]; p<0.05
  fractal dimension (FD) of astrocytes, DG: vehicle-treated, restrained mice had a significant reduction in FD of astrocytes in the DG when compared to cotinine-treated, restrained mice
  lacunarity of astrocytes, DG: vehicle-treated, restrained mice had reduced lacunarity of astrocytes relative to both their cotinine-treated, stressed
[2]; p<0.05 vs non-stressed controls, p<0.01 vs vehicle-treated restrained
  arbor area of astrocytes, CA3: significantly more arbor area of astrocytes than non-stressed controls
[2]; p<0.05 vs non-stressed controls, p=0.075 vs vehicle-treated stressed
  arbor area of astrocytes, CA1: significantly more arbor area than the non-stressed controls
[3]
  distance traveled in the OF test: 49±13 m
[4]
  depressive-like behavior induced by stress: substantively decreased depressive-like behavior induced by stress
